Among the data in ChEMBL document CHEMBL4665642, “Anticancer profile of newly synthesized BRAF inhibitors possess 5-(pyrimidin-4-yl)imidazo[2,1-b]thiazole scaffold” (Bioorg Med Chem, 2019) are viability and IC50 values, retold here.

Assay [1] has as its system Malme-3M. Briefly: Cytotoxicity against human Malme-3M cells assessed as cell viability at 10 uM incubated for 48 hrs by sulforhodamine B assay relative to control. Format: functional. The following applies: read-out: Activity. Background: Sulforhodamine B stains cellular protein and so reports cell mass.
The test system of assay [2] is HL-60(TB). The experiment in a line: Cytotoxicity against human HL-60(TB) cells assessed as cell viability at 10 uM incubated for 48 hrs by sulforhodamine B assay relative to control. Format: functional. The settings on record: read-out: Activity.
Assay [3] deals with MDA-MB-468. Briefly: Cytotoxicity against human MDA-MB-468 cells assessed as cell viability at 10 uM incubated for 48 hrs by sulforhodamine B assay relative to control. The following applies: read-out: Activity. The format is functional.
The target in assay [4] is RAF proto-oncogene serine/threonine-protein kinase (Homo sapiens, UniProt P04049). Briefly: Inhibition of human CRAF using MEK1 as substrate by [gamma-33P]-ATP assay.
Sequence of RAF proto-oncogene serine/threonine-protein kinase (P04049 whole entry): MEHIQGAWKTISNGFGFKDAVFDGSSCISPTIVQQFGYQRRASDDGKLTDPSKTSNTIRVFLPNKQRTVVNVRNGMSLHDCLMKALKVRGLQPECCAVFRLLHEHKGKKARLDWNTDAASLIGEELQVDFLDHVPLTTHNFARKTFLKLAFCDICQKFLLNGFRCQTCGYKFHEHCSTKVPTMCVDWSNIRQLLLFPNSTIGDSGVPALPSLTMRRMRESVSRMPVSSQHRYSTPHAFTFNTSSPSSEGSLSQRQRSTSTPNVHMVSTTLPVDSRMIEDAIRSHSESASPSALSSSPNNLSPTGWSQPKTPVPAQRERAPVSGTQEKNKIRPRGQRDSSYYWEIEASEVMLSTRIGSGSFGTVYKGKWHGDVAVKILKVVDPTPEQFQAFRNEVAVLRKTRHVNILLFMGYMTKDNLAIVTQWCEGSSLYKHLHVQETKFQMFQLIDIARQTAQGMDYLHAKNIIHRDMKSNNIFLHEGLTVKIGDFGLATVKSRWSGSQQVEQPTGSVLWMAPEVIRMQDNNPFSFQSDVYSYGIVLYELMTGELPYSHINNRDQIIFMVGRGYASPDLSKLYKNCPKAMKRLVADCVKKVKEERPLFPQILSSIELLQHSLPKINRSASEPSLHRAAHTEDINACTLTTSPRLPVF
For assay [5], the system named is CCRF-CEM. The experiment in a line: Cytotoxicity against human CCRF-CEM cells assessed as cell viability at 10 uM incubated for 48 hrs by sulforhodamine B assay relative to control. The format is functional. The following applies: read-out: Activity.
In assay [6] the test system is L132. Briefly: Cytotoxicity against human L132 cells assessed as reduction in cell viability by MTT assay. The format is cell-based. In general terms: Formazan colour is commonly taken as a measure of viable cells.
The test system of assay [7] is NCI-H522. The experiment in a line: Cytotoxicity against human NCI-H522 cells assessed as cell viability at 10 uM incubated for 48 hrs by sulforhodamine B assay relative to control. The format is functional. The settings on record: read-out: Activity.
The target of assay [8] is Serine/threonine-protein kinase B-raf (Homo sapiens, UniProt P15056). The experiment in a line: Inhibition of human BRAF using MEK1 as substrate by […] assay.
Sequence of Serine/threonine-protein kinase B-raf (Homo sapiens, UniProt P15056) (P15056 whole entry): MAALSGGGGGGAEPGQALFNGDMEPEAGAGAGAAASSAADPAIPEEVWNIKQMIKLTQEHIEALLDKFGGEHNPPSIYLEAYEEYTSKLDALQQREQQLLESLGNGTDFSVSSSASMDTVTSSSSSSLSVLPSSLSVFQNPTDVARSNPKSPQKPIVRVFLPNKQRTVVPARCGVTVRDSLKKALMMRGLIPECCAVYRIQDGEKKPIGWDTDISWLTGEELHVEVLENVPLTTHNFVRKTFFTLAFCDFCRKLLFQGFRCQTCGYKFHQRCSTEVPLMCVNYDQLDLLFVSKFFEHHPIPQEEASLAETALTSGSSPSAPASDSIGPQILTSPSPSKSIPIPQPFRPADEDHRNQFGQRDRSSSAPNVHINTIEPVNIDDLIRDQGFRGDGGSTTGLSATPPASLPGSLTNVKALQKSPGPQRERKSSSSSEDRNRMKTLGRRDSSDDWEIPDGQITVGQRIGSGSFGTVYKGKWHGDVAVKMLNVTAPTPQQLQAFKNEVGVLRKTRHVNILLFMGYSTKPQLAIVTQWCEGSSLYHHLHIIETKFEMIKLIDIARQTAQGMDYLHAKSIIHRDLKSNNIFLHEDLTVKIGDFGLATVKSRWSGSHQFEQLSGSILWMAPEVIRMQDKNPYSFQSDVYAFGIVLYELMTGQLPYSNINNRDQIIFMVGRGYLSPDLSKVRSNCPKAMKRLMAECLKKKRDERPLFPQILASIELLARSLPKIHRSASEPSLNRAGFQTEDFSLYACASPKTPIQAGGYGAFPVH
For assay [9], the system named is SK-MEL-28. Briefly: Cytotoxicity against human SK-MEL-28 cells assessed as reduction in cell viability by MTT assay. Format: functional, cell-based.
Assay [10] relates to MDA-MB-435. The experiment in a line: Cytotoxicity against human MDA-MB-435 cells assessed as cell viability at 10 uM incubated for 48 hrs by sulforhodamine B assay relative to control. The format is functional. The settings on record: read-out: Activity.
Assay [11] concerns NCI-H460. The experiment in a line: Cytotoxicity against human NCI-H460 cells assessed as cell viability at 10 uM incubated for 48 hrs by sulforhodamine B assay relative to control. Format: functional. The following applies: read-out: Activity.
Assay [12] concerns SK-OV-3. The experiment in a line: Cytotoxicity against human SK-OV-3 cells assessed as cell viability at 10 uM incubated for 48 hrs by sulforhodamine B assay relative to control. Format: functional. The settings on record: read-out: Activity.
For assay [13], the system named is EKVX. The experiment in a line: Cytotoxicity against human EKVX cells assessed as cell viability at 10 uM incubated for 48 hrs by sulforhodamine B assay relative to control. Format: functional. The following applies: read-out: Activity.
In assay [14] the test system is NCI/ADR-RES. The experiment in a line: Cytotoxicity against human NCI/ADR-RES cells assessed as cell viability at 10 uM incubated for 48 hrs by sulforhodamine B assay relative to control. The format is functional. The settings on record: read-out: Activity.
The subject of assay [15] is A-375. Briefly: Cytotoxicity against human A-375 cells assessed as reduction in cell viability by MTT assay. Format: functional, cell-based.
For assay [16], the system named is OVCAR-4. Briefly: Cytotoxicity against human OVCAR-4 cells assessed as cell viability at 10 uM incubated for 48 hrs by sulforhodamine B assay relative to control. The format is functional. The settings on record: read-out: Activity.
The target of assay [17] is Serine/threonine-protein kinase B-raf (Homo sapiens, UniProt P15056, V600E). The experiment in a line: Inhibition of human BRAF V600E mutant using MEK1 as substrate by […] assay.
Sequence of Serine/threonine-protein kinase B-raf (Homo sapiens, UniProt P15056, V600E) (P15056 2-766 V600E limits assumed): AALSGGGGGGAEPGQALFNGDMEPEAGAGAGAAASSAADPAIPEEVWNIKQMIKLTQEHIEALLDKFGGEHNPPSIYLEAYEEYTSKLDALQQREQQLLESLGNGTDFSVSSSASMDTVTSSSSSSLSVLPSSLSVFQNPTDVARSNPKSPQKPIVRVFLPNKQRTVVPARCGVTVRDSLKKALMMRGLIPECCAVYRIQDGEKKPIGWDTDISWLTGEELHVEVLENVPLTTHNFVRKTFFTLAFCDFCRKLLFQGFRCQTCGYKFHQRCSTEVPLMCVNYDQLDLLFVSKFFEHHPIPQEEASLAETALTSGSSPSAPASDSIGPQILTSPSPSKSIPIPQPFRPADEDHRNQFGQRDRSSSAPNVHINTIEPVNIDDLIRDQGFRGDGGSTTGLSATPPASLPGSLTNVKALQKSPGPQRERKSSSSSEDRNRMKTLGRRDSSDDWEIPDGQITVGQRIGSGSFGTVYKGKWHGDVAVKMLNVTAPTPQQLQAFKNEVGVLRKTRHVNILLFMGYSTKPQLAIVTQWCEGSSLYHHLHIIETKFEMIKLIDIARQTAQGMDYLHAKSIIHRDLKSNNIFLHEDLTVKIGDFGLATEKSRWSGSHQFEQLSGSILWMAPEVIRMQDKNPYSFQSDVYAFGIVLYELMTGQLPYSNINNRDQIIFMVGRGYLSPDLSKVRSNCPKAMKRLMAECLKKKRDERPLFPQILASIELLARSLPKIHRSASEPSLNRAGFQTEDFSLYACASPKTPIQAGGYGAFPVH
For assay [18], the system named is K562. Briefly: Cytotoxicity against human K562 cells assessed as cell viability at 10 uM incubated for 48 hrs by sulforhodamine B assay relative to control. Format: functional. The following applies: read-out: Activity.
Assay [19] concerns T47D. Briefly: Cytotoxicity against human T47D cells assessed as cell viability at 10 uM incubated for 48 hrs by sulforhodamine B assay relative to control. Format: functional. The settings on record: read-out: Activity.
The subject of assay [20] is BT-549. The experiment in a line: Cytotoxicity against human BT-549 cells assessed as cell viability at 10 uM incubated for 48 hrs by sulforhodamine B assay relative to control. Format: functional. The following applies: read-out: Activity.
Assay [21] deals with KM12. The experiment in a line: Cytotoxicity against human KM12 cells assessed as cell viability at 10 uM incubated for 48 hrs by sulforhodamine B assay relative to control. Format: functional. The following applies: read-out: Activity.
The subject of assay [22] is SF-268. Briefly: Cytotoxicity against human SF-268 cells assessed as cell viability at 10 uM incubated for 48 hrs by sulforhodamine B assay relative to control. The format is functional. The settings on record: read-out: Activity.
Assay [23] concerns UACC-62. The experiment in a line: Cytotoxicity against human UACC-62 cells assessed as cell viability at 10 uM incubated for 48 hrs by sulforhodamine B assay relative to control. Format: functional. The following applies: read-out: Activity.
For assay [24], the system named is SW-620. Briefly: Cytotoxicity against human SW-620 cells assessed as cell viability at 10 uM incubated for 48 hrs by sulforhodamine B assay relative to control. Format: functional. The following applies: read-out: Activity.

Each structure is given as a SMILES string.

By IC50 is commonly meant the concentration needed to halve the response being measured. Turning to `O=S(=O)(NCCCNc1nccc(-c2c(-c3cccc(F)c3)nc3sccn23)n1)c1ccc(C(F)(F)F)cc1`, the viability at 10 µM in assay [1] amounted to 127%; in [2], 127%; in [3], 102%; in assay [5], 89.4%; in assay [7], 85.5%; in assay [10], 74.2%. For the same compound, the viability at 10 µM in [11] was 98.7%; in [12], 77.7%; in assay [13], 87.3%; in [14], 87.2%; in [16], 93%; in assay [18] it was 69.8%. Moreover, the viability at 10 µM in assay [19] stood at 56%; in assay [20], 99.8%; in [21] it was 88.5%; in [22], 75.6%; in assay [23] it was 80.4%; in assay [24], 115%. Besides, the half-maximal inhibitory concentration (IC50) in assay [4] came to 0.04 µM; in assay [6], 320 µM; in assay [8] it was 0.063 µM; in [9] it was 11.7 µM; in [15], 4.09 µM; in [17] it was 0.026 µM.
